Earlier results, collected in US7904011B2, “Temperature control unit and image forming apparatus including same” (Ricoh Company, Ltd., priority 2007, dated 2011).

Settings: in vivo

Compound	acute oral toxicity LD50 [mg/kg]
CCOCCOC(=O)CCC(=O)OCCOCC [diethoxyethyl succinate]	5000
CC1COC(=O)O1 (stereo not drawn) [propylene carbonate]	29000
[Cl-].[Na+] [salt, reference compound]	3000
